Tests used:
[1] = test system: Chenopodium spp., Papaver spp., Polygonum spp., Veronica spp. or Viola spp.; assay: Post-emergence effect on weeds (greenhouse pot test, visual scoring); type: in vivo, monocotyledonous and dicotyledonous weeds; details: treated at three-leaf stage; visual scoring after about 3 to 4 weeks; application rate of 0.5 kg and less of active substance per hectare
[2] = test system: Cyperus spp., Echinochloa spp., Digitaria spp., Sagitaria spp. and Scirpus spp.; assay: Action on harmful plants in rice (paddy rice conditions, visual scoring); type: in vivo, typical rice weeds (gramineous and broad-leaved); details: applied into the dammed water, visual scoring about three weeks after application
How it was run: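 Under paddy conditions with 2-3 cm dammed water, transplanted and sown rice plus weeds were treated at three-leaf stage (E. crus-galli at 1.5 leaves). Pots stayed in greenhouse under optimum growth conditions for the test period, with visual assessment of damage.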

SMILES	herbicidal activity post-emergence against harmful plants [1]	herbicidal activity against harmful plants which are typical for rice crops [2]
CC#Cc1cc(CNc2nc(N)nc(C(F)CC)n2)ccc1F (centres unmarked) [Product P26.384]	very good herbicidal activity	very good herbicidal activity
CCC(F)c1nc(N)nc(NC(C)c2ccc(C(F)=C(F)F)cc2)n1 (centres unmarked) [Product P27.1568]	very good herbicidal activity	very good herbicidal activity
CC#Cc1cc(C(Nc2nc(N)nc(CC)n2)C2CC2)ccc1F (centres unmarked) [Product P9.384]	very good herbicidal activity	very good herbicidal activity
C#Cc1ccc(C(C)Nc2nc(N)nc(C(F)CC)n2)cc1C (centres unmarked) [Product P27.335]	very good herbicidal activity	very good herbicidal activity
C#Cc1cc(C(Nc2nc(N)nc(C(F)CC)n2)C2CC2)ccc1F (centres unmarked) [Product P29.309]	very good herbicidal activity	very good herbicidal activity
C#Cc1c(F)cc(C(C)Nc2nc(N)nc(C(C)F)n2)cc1F (centres unmarked) [Product P22.352]	very good herbicidal activity	very good herbicidal activity
CC#Cc1cc(C(C)Nc2nc(C)nc(N)n2)ccc1F (centres unmarked) [Product P2.384]	very good herbicidal activity	very good herbicidal activity
CCC(F)c1nc(N)nc(NC(C)c2ccc(F)c(C3CC3)c2)n1 (centres unmarked) [Product P27.916]	very good herbicidal activity	very good herbicidal activity
CCCCC#Cc1ccc(C(C)Nc2nc(N)nc(C(C)F)n2)cc1 (centres unmarked) [Product P22.1595]	very good herbicidal activity	very good herbicidal activity
CC(C)c1nc(N)nc(NC(C)c2cccc(C3CC3)c2)n1 (centres unmarked) [Product P12.1603]	very good herbicidal activity	very good herbicidal activity
Cc1nc(N)nc(NC(c2cccc(C(F)=C(F)F)c2)C2CC2)n1 (centres unmarked) [Product P4.1567]	very good herbicidal activity	very good herbicidal activity
Cc1nc(N)nc(NC(C)c2ccc(F)c(C(F)=C(F)F)c2)n1 (centres unmarked) [Product P2.5]	very good herbicidal activity	very good herbicidal activity
Cc1nc(N)nc(NCc2ccc(C(F)=C(F)F)cc2)n1 [Product P1.1568]	very good herbicidal activity	very good herbicidal activity
CC(F)C#Cc1cccc(C(C)Nc2nc(N)nc(C(C)F)n2)c1 (centres unmarked) [Product P22.1597]	very good herbicidal activity	very good herbicidal activity
CCc1nc(N)nc(NCc2cccc(C3CC3)c2)n1 [Product P6.1603]	very good herbicidal activity	very good herbicidal activity
C=C=Cc1c(F)cc(C(C)Nc2nc(N)nc(CC)n2)cc1F (centres unmarked) [Product P7.656]	very good herbicidal activity	very good herbicidal activity

SMILES	herbicidal activity post-emergence against harmful plants [1]	herbicidal activity against harmful plants which are typical for rice crops [2]
Cc1nc(N)nc(NC(c2ccc(C(F)=C(F)F)cc2)C2CC2)n1 (centres unmarked) [Product P4.1568]	very good herbicidal activity	very good herbicidal activity
CCc1nc(N)nc(NCc2ccc(C3CC3)cc2)n1 [Product P6.1604]	very good herbicidal activity	very good herbicidal activity
CC#Cc1c(C)cc(C(C)Nc2nc(N)nc(C(C)(C)F)n2)cc1C (centres unmarked) [Product P17.424]	very good herbicidal activity	very good herbicidal activity
CC(C)(F)c1nc(N)nc(NCc2cccc(C(F)=C(F)F)c2)n1 [Product P16.1567]	very good herbicidal activity	very good herbicidal activity
C#Cc1cc(C(Nc2nc(C)nc(N)n2)C2CC2)ccc1F (centres unmarked) [Product P4.309]	very good herbicidal activity	very good herbicidal activity
C#Cc1cc(C#C)cc(C(C)Nc2nc(N)nc(CC)n2)c1 (centres unmarked) [Product P7.369]	very good herbicidal activity	very good herbicidal activity
C#Cc1ccc(C(Nc2nc(N)nc(C(C)F)n2)C2CC2)cc1 (centres unmarked) [Product P24.1580]	very good herbicidal activity	very good herbicidal activity
CC#Cc1ccc(C(Nc2nc(N)nc(CC)n2)C2CC2)cc1 (centres unmarked) [Product P9.1583]	very good herbicidal activity	very good herbicidal activity
C#Cc1ccc(C(C)Nc2nc(N)nc(CC)n2)cc1 (centres unmarked) [Product P7.1580]	very good herbicidal activity	very good herbicidal activity
CCCCC#Cc1cc(C(C)Nc2nc(N)nc(C(C)(C)F)n2)ccc1F (centres unmarked) [Product P17.688]	very good herbicidal activity	very good herbicidal activity
Cc1nc(N)nc(NC(c2cccc(C3CC3)c2)C2CC2)n1 (centres unmarked) [Product P4.1603]	very good herbicidal activity	very good herbicidal activity
CC(C)(F)c1nc(N)nc(NCc2ccc(C3CC3)cc2)n1 [Product P16.1604]	very good herbicidal activity	very good herbicidal activity
CC#Cc1cc(CNc2nc(N)nc(C(C)F)n2)ccc1F (centres unmarked) [Product P21.384]	very good herbicidal activity	very good herbicidal activity
CC(F)C#Cc1cc(C(C)Nc2nc(N)nc(C(C)(C)F)n2)ccc1F (centres unmarked) [Product P17.764]	very good herbicidal activity	very good herbicidal activity
CC#Cc1ccc(CNc2nc(N)nc(C(C)F)n2)cc1 (centres unmarked) [Product P21.1583]	very good herbicidal activity	very good herbicidal activity
